Reference: ChEMBL document CHEMBL5233214, “Tyrosinase inhibitors as potential antibacterial agents” (Eur J Med Chem, 2020)
Values after ≈ are worked out from the molar mass of the structure shown.

Tests used:
Tyrosinase [1] = target: T1, Tyrosinase (Agaricus bisporus, UniProt O42713); assay: Inhibition of mushroom tyrosinase using L-DOPA as substrate incubated for 20 mins by microplate reader assay
T1 sequence (O42713 whole entry): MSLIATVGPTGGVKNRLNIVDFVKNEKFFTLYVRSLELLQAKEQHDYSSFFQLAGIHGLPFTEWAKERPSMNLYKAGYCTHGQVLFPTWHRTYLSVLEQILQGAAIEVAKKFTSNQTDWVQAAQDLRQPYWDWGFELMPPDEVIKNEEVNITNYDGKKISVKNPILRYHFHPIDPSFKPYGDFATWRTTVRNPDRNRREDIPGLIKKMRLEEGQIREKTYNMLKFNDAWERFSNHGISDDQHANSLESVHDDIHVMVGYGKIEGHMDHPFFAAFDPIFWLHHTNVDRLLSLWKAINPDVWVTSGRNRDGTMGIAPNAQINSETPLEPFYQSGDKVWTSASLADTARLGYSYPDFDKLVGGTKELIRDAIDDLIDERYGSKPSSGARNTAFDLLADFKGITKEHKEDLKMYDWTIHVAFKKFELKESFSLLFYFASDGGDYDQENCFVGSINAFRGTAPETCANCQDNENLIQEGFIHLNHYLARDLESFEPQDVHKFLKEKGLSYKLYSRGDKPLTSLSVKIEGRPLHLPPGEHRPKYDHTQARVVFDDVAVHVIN

[2] = test system: Staphylococcus epidermidis; assay: Antibacterial activity against Staphylococcus epidermidis ATCC 14990 assessed as inhibition of bacterial growth incubated for 18 to 24 hrs by serial dilution method; type: functional; conditions: time 18-24 hrs
Salmonella typhimurium = assay: Antibacterial activity against Salmonella enterica subsp. enterica serovar Typhimurium ATCC 14028 assessed as inhibition of bacterial growth incubated for 18 to 24 hrs by serial dilution method; type: functional; conditions: time 18-24 hrs
Bacillus subtilis [3] = assay: Antibacterial activity against Bacillus subtilis ATCC 66333 assessed as inhibition of bacterial growth incubated for 18 to 24 hrs by serial dilution method; type: functional; conditions: time 18-24 hrs
Proteus vulgaris = assay: Antibacterial activity against Proteus vulgaris ATCC 13315 assessed as inhibition of bacterial growth incubated for 18 to 24 hrs by serial dilution method; type: functional; conditions: time 18-24 hrs
Enterobacter cloacae = assay: Antibacterial activity against Enterobacter cloacae ATCC 13047 assessed as inhibition of bacterial growth incubated for 18 to 24 hrs by serial dilution method; type: functional; conditions: time 18-24 hrs
Klebsiella pneumoniae = assay: Antibacterial activity against Klebsiella pneumoniae ATCC 13883 assessed as inhibition of bacterial growth incubated for 18 to 24 hrs by serial dilution method; type: functional; conditions: time 18-24 hrs
Tyrosinase [4] = target: T2, Tyrosinase (Homo sapiens, UniProt P14679); assay: Inhibition of tyrosinase (unknown origin) using DOPA as substrate incubated for 15 min by spectrophotometer assay
T2 sequence (P14679 whole entry): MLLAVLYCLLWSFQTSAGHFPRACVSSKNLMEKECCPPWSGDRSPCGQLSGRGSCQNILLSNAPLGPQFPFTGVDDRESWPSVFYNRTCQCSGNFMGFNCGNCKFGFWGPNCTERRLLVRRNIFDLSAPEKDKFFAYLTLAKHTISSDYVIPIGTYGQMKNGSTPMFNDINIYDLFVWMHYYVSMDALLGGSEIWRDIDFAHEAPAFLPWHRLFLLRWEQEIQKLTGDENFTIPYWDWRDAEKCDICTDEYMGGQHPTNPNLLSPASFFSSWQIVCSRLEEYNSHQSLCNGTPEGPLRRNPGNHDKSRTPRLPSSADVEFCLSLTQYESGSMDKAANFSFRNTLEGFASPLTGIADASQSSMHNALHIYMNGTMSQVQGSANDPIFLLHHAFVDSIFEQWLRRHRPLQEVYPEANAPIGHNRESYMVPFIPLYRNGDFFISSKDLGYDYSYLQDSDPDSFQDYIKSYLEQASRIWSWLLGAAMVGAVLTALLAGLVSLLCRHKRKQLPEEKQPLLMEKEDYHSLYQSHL

Bacillus cereus = assay: Antibacterial activity against Bacillus cereus ATCC 27348 assessed as zone of inhibition at 10 ug per disk incubated for 12 hrs by paper-disk diffusion assay; type: functional; conditions: read-out: IZ
Tyrosinase [5] = target: T1, Tyrosinase; assay: Inhibition of mushroom tyrosinase using L-DOPA as substrate incubated for 10 mins by spectrophotometer assay
Staphylococcus aureus [6] = assay: Antibacterial activity against Staphylococcus aureus ATCC 13301 assessed as zone of inhibition at 10 ug per disk incubated for 12 hrs by paper-disk diffusion assay; type: functional; conditions: read-out: IZ
Bacillus subtilis [7] = assay: Antibacterial activity against Bacillus subtilis ATCC 9372 assessed as zone of inhibition at 10 ug per disk incubated for 12 hrs by paper-disk diffusion assay; type: functional; conditions: read-out: IZ
[8] = test system: Staphylococcus epidermidis; assay: Antibacterial activity against Staphylococcus epidermidis ATCC 35984 assessed as inhibition of bacterial growth incubated for 24 hrs by two-fold serial dilution method; type: functional
Enterococcus faecalis = assay: Antibacterial activity against Enterococcus faecalis assessed as zone of inhibition; type: functional, organism-based
Bacillus subtilis [9] = assay: Antibacterial activity against Bacillus subtilis assessed as zone of inhibition at 300 ug/ml; type: functional; conditions: read-out: IZ
Staphylococcus aureus [10] = assay: Antibacterial activity against Staphylococcus aureus assessed as zone of inhibition; type: functional
Staphylococcus aureus [11] = assay: Antibacterial activity against Methicillin-resistant Staphylococcus aureus assessed as inhibition of bacterial growth by agar dilution method; type: functional
Fusobacterium nucleatum = assay: Antibacterial activity against Fusobacterium nucleatum ATCC 10953 assessed as inhibition of bacterial growth incubated for 48 hrs by microbroth dilution method; type: functional
Staphylococcus aureus [12] = assay: microbe, parasite or virus in culture; conditions: ATTC 25923
Description: Antibacterial activity against Staphylococcus aureus ATTC 25923 assessed as inhibition of bacterial growth by broth microdilution method

[13] = test system: Staphylococcus epidermidis; assay: microbe, parasite or virus in culture; conditions: TISTR 517
Description: Antibacterial activity against Staphylococcus epidermidis TISTR 517 assessed as inhibition of bacterial growth by broth microdilution method

Tyrosinase [14] = target: T1, Tyrosinase; assay: Inhibition of mushroom tyrosinase using L-DOPA as substrate pre-incubated for 10 mins followed by substrate addition and measured after 20 mins by microplate reader assay
Staphylococcus aureus [15] = assay: Antibacterial activity against Methicillin-resistant Staphylococcus aureus assessed as inhibition of bacterial growth by broth microdilution method

F[B-]1(F)Nc2ccccc2C2=[N+]1NC(c1cccnc1)C2 (configuration not stated)
IC50 (Tyrosinase [1]): 350 µM
MIC [2]: 18.8 µg/mL (≈ 65.5 µM)

O=c1cc2n(c3ccccc13)[B-](F)(F)[n+]1ccccc1-2
MIC (Salmonella typhimurium): ≤ 18.8 µg/mL
IC50 (Tyrosinase [1]): > 741 µM
MIC (Bacillus subtilis [3]): ≤ 18.8 µg/mL
MIC (Proteus vulgaris): ≤ 18.8 µg/mL
MIC [2]: ≤ 18.8 µg/mL
MIC (Enterobacter cloacae): ≤ 18.8 µg/mL
MIC (Klebsiella pneumoniae): ≤ 18.8 µg/mL

COc1c(N2C[C@@H]3CCCN[C@@H]3C2)c(F)cc2c(=O)c(C(=O)O)cn(C3CC3)c12 [MOXIFLOXACIN]
IC50 (Tyrosinase [1]): 2.99 µM

C[C@@H]1O[C@@H](OC[C@H]2O[C@@H](Oc3c(-c4ccc(O)cc4)oc4cc(O)cc(O)c4c3=O)[C@H](O)[C@@H](O)[C@@H]2O)[C@H](O)[C@H](O)[C@H]1O [NICOTIFLOROSIDE]
IC50 (Tyrosinase [4]): 1.53 µM

C=C(C)C(CC=C(C)C)Cc1c(O)cc(O)c2c1O[C@H](c1ccc(O)cc1O)CC2=O (some centres not stated)
zone of inhibition at 10 µg/disc (Bacillus cereus): 14 mm
IC50 (Tyrosinase [5]): 4.71 µM
zone of inhibition at 10 µg/disc (Staphylococcus aureus [6]): 14 mm
zone of inhibition at 10 µg/disc (Bacillus subtilis [7]): 14 mm
MIC [8]: 3.12 µg/mL (≈ 7.36 µM)

GENTAMICIN
inhibition zone (IZ) (Enterococcus faecalis): 10.6 mm

O=c1c(O[C@@H]2O[C@H](CO)[C@H](O)[C@H](O)[C@H]2O)c(-c2ccc(O)c(O)c2)oc2cc(O)cc(O)c12 [HYPEROSIDE]
IC50 (Tyrosinase [4]): 1.64 µM

C[C@@H]1O[C@@H](OC[C@H]2O[C@@H](Oc3c(-c4ccc(O)c(O)c4)oc4cc(O)cc(O)c4c3=O)[C@H](O)[C@@H](O)[C@@H]2O)[C@H](O)[C@H](O)[C@H]1O [RUTIN]
IC50 (Tyrosinase [4]): 1.4 µM

C=C(C)C(CCC(C)(C)O)Cc1c(O)cc(OC)c2c1O[C@H](c1ccc(O)cc1O)CC2=O (some centres not stated)
IC50 (Tyrosinase [5]): 0.11 µM

C=C(C)C(CC=C(C)C)Cc1c(O)cc(OC)c2c1O[C@H](c1ccc(O)cc1O)CC2=O (some centres not stated) [KURARINONE]
zone of inhibition at 10 µg/disc (Bacillus cereus): 14 mm
IC50 (Tyrosinase [5]): 2.19 µM
zone of inhibition at 10 µg/disc (Staphylococcus aureus [6]): 14 mm
zone of inhibition at 10 µg/disc (Bacillus subtilis [7]): 14 mm

CC1(C)S[C@@H]2[C@H](NC(=O)[C@H](N)c3ccccc3)C(=O)N2[C@H]1C(=O)O [AMPICILLIN]
zone of inhibition at 300 µg/mL (Bacillus subtilis [9]): 17.9 mm

Nc1ccccc1C1=NNC(c2ccncc2)C1 (configuration not stated)
IC50 (Tyrosinase [1]): 420 µM
MIC [2]: 37.5 µg/mL (≈ 157 µM)

CN[C@@H]1[C@H](O[C@H]2[C@H](O[C@H]3[C@H](O)[C@@H](O)[C@H](N=C(N)N)[C@@H](O)[C@@H]3N=C(N)N)O[C@@H](C)[C@]2(O)C=O)O[C@@H](CO)[C@H](O)[C@H]1O [STREPTOMYCIN]
inhibition zone (IZ) (Staphylococcus aureus [10]): 20.3 mm

O=c1cc(-c2ccc(O)c(O)c2)oc2cc(O)cc(O)c12 [LUTEOLIN]
MIC (Staphylococcus aureus [11]): 31.2 µg/mL (≈ 109 µM)
IC50 (Tyrosinase [4]): 2.14 µM

OCCc1ccccc1 [PHENYLETHYL ALCOHOL]
IC50 (Tyrosinase [4]): 2580 µM
MIC (Fusobacterium nucleatum): 8 µg/mL (≈ 65.5 µM)

F[B-]1(F)Nc2ccccc2C2=[N+]1NC(c1ccncc1)C2 (configuration not stated)
IC50 (Tyrosinase [1]): > 699 µM
MIC [2]: 37.5 µg/mL (≈ 131 µM)

Nc1ccccc1C1=NNC(c2ccccn2)C1 (configuration not stated)
MIC (Salmonella typhimurium): 18.8 µg/mL (≈ 78.7 µM)
IC50 (Tyrosinase [1]): 420 µM
MIC (Bacillus subtilis [3]): 18.8 µg/mL (≈ 78.7 µM)
MIC (Proteus vulgaris): 18.8 µg/mL (≈ 78.7 µM)
MIC [2]: 18.8 µg/mL (≈ 78.7 µM)
MIC (Enterobacter cloacae): 18.8 µg/mL (≈ 78.7 µM)
MIC (Klebsiella pneumoniae): 18.8 µg/mL (≈ 78.7 µM)

CCn1cc(C(=O)O)c(=O)c2cc(F)c(N3CCNCC3)cc21 [NORFLOXACIN]
IC50 (Tyrosinase [1]): 2.19 µM

CC(C)=CCC[C@@](C)(O)[C@@H]1CC=C(C)CC1
IC50 (Tyrosinase [4]): 2860 µM
MIC (Fusobacterium nucleatum): 8 µg/mL (≈ 36 µM)

CC(C)=CCC/C(C)=C/Cc1c(O)ccc(C=O)c1O
MIC (Staphylococcus aureus [12]): < 8 µg/mL
MIC [13]: < 8 µg/mL
IC50 (Tyrosinase [14]): > 729 µM
MIC (Staphylococcus aureus [15]): < 8 µg/mL

Nc1ccccc1C1=NNC(c2cccnc2)C1 (configuration not stated)
IC50 (Tyrosinase [1]): 420 µM
MIC [2]: 150 µg/mL (≈ 629 µM)

F[B-]1(F)Nc2ccccc2C2=[N+]1NC(c1ccccn1)C2 (configuration not stated)
MIC (Salmonella typhimurium): 37.5 µg/mL (≈ 131 µM)
IC50 (Tyrosinase [1]): 350 µM
MIC (Bacillus subtilis [3]): 37.5 µg/mL (≈ 131 µM)
MIC (Proteus vulgaris): 37.5 µg/mL (≈ 131 µM)
MIC [2]: 37.5 µg/mL (≈ 131 µM)
MIC (Enterobacter cloacae): 37.5 µg/mL (≈ 131 µM)
MIC (Klebsiella pneumoniae): 37.5 µg/mL (≈ 131 µM)
